How the values were obtained:
[1] = test system: spinal nerve ligation peripheral neuropathy; assay: Tactile allodynia and thermal hyperalgesia in spinal nerve ligation (SNL) peripheral neuropathy model; format: in vivo, Sprague Dawley rats
Description: A cohort of 48 male Sprague Dawley rats, weighing 225-250 g at arrival, was group housed under constant temperature, humidity and a 12-hour light-dark cycle. Following acclimation to the animal colony, the animals were tested for baseline withdrawal responses to mechanical allodynia and thermal hyperalgesia using the methods described in. Chaplan, S. R., Bach, […]., Chung, J. M. and Yaksh, T. L. Quantitative assessment of tactile allodynia in the rat paw. J. Neurosci. Methods 53: 55-63, 1994; Joris, J. L., Dubner, R. and Hargreaves, K. M. Opioid analgesia at Peripheral Sites: a Target for Opioids Released during Stress and Inflammation? Anesthesia and Analgesia 66(12), 1277-81, 1987; and Kim, S. H. and Chung, J. M. An experimental model of peripheral neuropathy produced by segmental spinal nerve ligation in the rat. Pain 50: 335-63, 1992. […] Thermal hyperalgesia was measured at 1 or 1.5 hr after dosing of test articles, vehicle, and reference compound via the specified route(s) on Day 21. […] The time was measured automatically when the paw was withdrawn away from the thermal stimulus. […] Mean thresholds and withdrawal latencies were analyzed via Two Way ANOVA followed by Dunnett's Multiple Comparison tests to SNL+VEH group with differences considered significant at p<0.05.

[2] = test system: STZ-induced diabetic neuropathy; assay: Tactile allodynia and thermal hyperalgesia in streptozotocin-induced (STZ) diabetic neuropathy model; format: in vivo, Sprague Dawley rats; settings: for Active Doses in STZ Diabetic Neuropathy Model (mg/kg, po) (p < 0.05 compared to STZ + VEH treated mice) MECHANICAL: mechanical allodynia, manual von Frey; for Active Doses in STZ Diabetic Neuropathy Model (mg/kg, po) (p < 0.05 compared to STZ + VEH treated mice) THERMAL: thermal hyperalgesia, paw withdrawal latency
Description: A cohort of 48 male Sprague Dawley rats, weighing 225-250 g at arrival, was group housed under constant temperature, humidity and a 12-hour light-dark cycle. Following acclimation to the animal colony, the animals were tested for baseline withdrawal responses to mechanical allodynia and thermal hyperalgesia using the methods described below in Chaplan, S. R., Bach, […]., Chung, J. M. and Yaksh, T. L. Quantitative assessment of tactile allodynia in the rat paw. J. Neurosci. Methods 53: 55-63, 1994; Joris, J. L., Dubner, R. and Hargreaves, K. M. Opioid analgesia at Peripheral Sites: a Target for Opioids Released during Stress and Inflammation? Anesthesia and Analgesia 66(12), 1277-81, 1987; and Morrow, T. J. Animal Models of Painful Diabetic Neuropathy: The STZ rat model. Current Protocols in Neuroscience, November; Chapter 9, Unit 9.18, 2004.. […] Two days later (on Day 3), hyperglycermia was confirmed by existence of blood glucose >350 mg/dL as measured by glucometer, and the animal health was monitored biweekly for 12 days. For measures of mechanical allodynia, rats were preselected for experimentation only if the pain threshold 7-14 days after STZ injection (pre-treatment) was reduced by 10 grams of force relative to the response of the individual paw before STZ challenge (pre-induction), namely, with clear presence of allodynia. The rats were randomized based on pre-dose mechanical allodynia scores to balanced treatment groups. The animals were tested prior to study inclusion for mechanical allodynia by the manual von Frey test on Day 20 (Chaplan up/down method using von Frey filaments on the plantar surface of the paw). The manual von Frey test was repeated at 0.5 or 1 hr following administrations of test articles, vehicle, and reference compound via the specified route(s) and on Day 21 post-surgery. […] The rats were randomized based on pre-dose thermal hyperalgesia scores to balanced treatment groups. Rats were preselected (with clear presence of thermal hyperalgesia) on Day 20. Thermal hyperalgesia was measured at 1 or 1.5 hr after dosing of test articles, vehicle, and reference compound via the specified route(s) on Day 21. Each rat was placed within a plastic box atop a glass floor for 20 to 30 minutes. A light beam under the floor was aimed at the plantar surface of the left hind paw. The time was measured automatically when the paw was withdrawn away from the thermal stimulus. A cut-off latency of 23 sec was imposed. The latency to withdrawal was obtained for each rat and defined as the heat pain threshold. Mean thresholds and withdrawal latencies were analyzed via Two Way ANOVA followed by Dunnett's Multiple Comparison tests to STZ+VEH group with differences considered significant at p<0.05.

[3] = test system: oxaliplatin induced peripheral neuropathy; assay: Reversal of allodynia induced by oxaliplatin in mice (von Frey frequency method); format: in vivo, c57bl/6 mice; settings: tested 30 min after dosing
Description: Compounds were tested for efficacy in mouse models of chemotherapy induced peripheral neuropathy. […] For these studies […]/6 mice are habituated to the test environment and baseline measurements of pain sensitivity are assessed. To determine mechanical responses, the threshold for responses to punctate mechanical stimuli (mechanical hyperalgesia) was tested according to the frequency method. In brief, the plantar surface of the animal hindpaw was stimulated with a single von Frey monofilament (0.4 g) for approximately 1-2 seconds. If there was a withdrawal response, it was recorded as a positive response. A response was defined as a lifting or shaking of the paw upon stimulation. This was repeated ten times for each mouse. The final measurement for each mouse is the % non-response to stimulation for the ten trials. The % non-response to stimulation is converted to a % MPE. For paclitaxel induced peripheral neuropathy, a series of injections of PAC (6 mg/kg, i.p.) on days 1, 3, 5 and 7 is used to induce peripheral neuropathy. After approximately 14 days from the initiation of PAC injections, animals are re-assessed for mechanical sensitivity. […] On test day animals are dosed with compounds either subcutaneously or orally and tested for mechanical response by the frequency method either 30 min (s.c.) or 60 min (p.o.) after drug administration. Data is presented as a % MPE. For oxaliplatin induced peripheral neuropathy, a series of injections of OXA (4 mg/kg, i.p.) on days 1-5 is used to induce peripheral neuropathy. After approximately 14 days from the initiation of PAC injections, animals are re-assessed for mechanical sensitivity. […] On test day animals are dosed with compounds subcutaneously and tested for mechanical response by the frequency method 30 min after drug administration. Data is presented as a % MPE. One or more of the compounds show reversal of chemotherapeutic induced peripheral neuropathy.

Compound	Active Doses in SNL Neuropathy Model (mg/kg) (p < 0.05 compared to SNL + VEH treated mice) MECHANICAL ([1]; mechanical allodynia, manual von Frey)	Active Doses in SNL Neuropathy Model (mg/kg) (p < 0.05 compared to SNL + VEH treated mice) THERMAL ([1]; thermal hyperalgesia, paw withdrawal latency)	Active Doses in STZ Diabetic Neuropathy Model (mg/kg, po) (p < 0.05 compared to STZ + VEH treated mice) MECHANICAL [2] [mg/kg]	Active Doses in STZ Diabetic Neuropathy Model (mg/kg, po) (p < 0.05 compared to STZ + VEH treated mice) THERMAL [2] [mg/kg]	Screen @ 3 mg/kg sc (% MPE) [3] [% MPE]
CCC1(CC)CC(=O)c2cc(-c3nc(-c4cccnc4)no3)ccc2O1 [Compound 103, 2,2-diethyl-6-[3-(pyridin-3-yl)-1,2,4-oxadiazol-5-yl]-3,4-dihydro-2H-1-benzopyran-4-one]	<100	<100	<100	<100	–
COc1ccccc1-c1nc(-c2ccc3c(c2)nnn3C(C)C)no1 [Compound 287, 3-(1-isopropyl-1H-benzo[d][1,2,3]triazol-5-yl)-5-(2-methoxyphenyl)-1,2,4-oxadiazole]	–	–	–	–	>50
Cc1ccccc1-c1noc(-c2ccc3c(c2)nnn3C(C)C)n1 [Compound 293, 5-[3-(2-methylphenyl)-1,2,4-oxadiazol-5-yl]-1-(propan-2-yl)-1H-1,2,3-benzotriazole]	–	–	<100	<100	–
CCC1(CC)CC(=O)c2cc(-c3nc(-c4cn[nH]c4)no3)ccc2O1 [Compound 469, 6-(3-(1H-pyrazol-4-yl)-1,2,4-oxadiazol-5-yl)-2,2-diethylchroman-4-one]	–	–	<100	<100	–
